Results on one molecule are retold here after patent US11052092B2, “N-{[2-(piperidin-1-yl)phenyl](phenyl)methyl}-2-(3-oxo-3,4-dihydro-2H-1,4-benzoxazin-7-yl)acetamide derivatives and related compounds as ROR-gamma modulators for treating autoimmune diseases” (Genfit, priority 2017, dated 2021).

One data set concerns the target T1, human RORγt (Homo sapiens, UniProt P51449).
T1 construct: the full-length cDNA of human RORγt; expressed in transfected cells; host or cells: COS-7 (monkey kidney)
T1 sequence (P51449 1-497 isoform P51449-2): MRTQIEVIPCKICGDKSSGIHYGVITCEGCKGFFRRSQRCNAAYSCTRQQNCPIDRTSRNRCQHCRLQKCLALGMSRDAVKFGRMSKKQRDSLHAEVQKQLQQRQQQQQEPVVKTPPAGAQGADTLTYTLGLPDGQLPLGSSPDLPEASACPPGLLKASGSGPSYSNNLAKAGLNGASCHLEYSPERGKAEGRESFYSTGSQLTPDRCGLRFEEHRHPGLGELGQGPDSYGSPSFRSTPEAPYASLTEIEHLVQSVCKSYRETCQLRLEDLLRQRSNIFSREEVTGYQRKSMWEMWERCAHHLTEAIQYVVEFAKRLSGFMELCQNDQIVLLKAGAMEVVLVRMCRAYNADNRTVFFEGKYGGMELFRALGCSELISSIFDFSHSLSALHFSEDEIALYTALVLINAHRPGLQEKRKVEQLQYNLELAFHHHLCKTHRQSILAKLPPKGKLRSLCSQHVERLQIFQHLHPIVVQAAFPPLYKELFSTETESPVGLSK
Kind of data set: RORE Luciferase/RORγt transactivation assay. It counts as cell-based. Particulars: COS-7 cells transfected with human IL-17 promoter luciferase reporter and RORγt plasmid; 20 h with compound; read-out: IC50, RORγt activity inhibition. The gist of the method:
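Transactivation read-out: luminescence (Steady-Glo, 30 min at room temperature) from COS-7 cells carrying a RORγt expression plasmid plus a 4.3 kb IL-17 promoter luciferase reporter. Compound exposure was in serum-free DMEM with 0.3% DMSO final. Reported values are IC50 (μM) and Emax (%).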

Data set [1] has as its system Murine EL-4 lymphoma cell line overexpressing human RORγt. The experiment in a line: IL-17 secretion from EL4 murine lymphoma. It counts as cell-based. Particulars: Mus musculus; human RORγt-transfected EL4 cells, PMA (10 ng/mL) and ionomycin (1 μM), 24 h; read-out: IC50, IL-17 secretion inhibition. The gist of the method: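 EL-4 cells electroporated with hRORγt plasmid, seeded at 150000 cells/well and pretreated with compound for 24 h, then stimulated with PMA (10 ng/mL) plus ionomycin (1 μM final) with compound for a further 24 h at 37 °C. IL-17 in supernatant measured by HTRF or ELISA.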

Data set [2] has as its system IMQ induced psoriasis in mice. Kind of data set: Imiquimod (IMQ) induced psoriasis study, cumulative clinical score. It counts as in vivo, C57BL/6 female mice. As to the method: 8-10 weeks C57BL/6 female mice received a daily topical dose of 62.5 mg/mouse IMQ cream (Aldara® cream 5%; 3M pharmaceuticals, Sweden) on the shaved back and the right ear for 7 consecutive days. Control mice were treated similarly with a control vehicle cream (Vaseline). Test compound (Cpd 24) was orally administered daily from day 0 to day 7 at 3 mg/mL (30 mg/kg). Test compound was given 8 hours before IMQ application. Mice were killed at day 7, 4 h after the last test compound treatment to analyse skin inflammation parameters.
The severity of inflammation of the back skin was determined using the following criteria. An objective scoring system was developed based on the clinical Psoriasis Area and Severity Index (PASI), except that for the mouse model the affected skin area is not taken into account in the overall score. Erythema, scaling, and thickening were scored independently on a scale from 0 to 4: 0: none; 1: slight; 2: moderate; 3: marked; 4: severe. The cumulative score (erythema plus scaling plus thickening) served as a measure of the severity of inflammation (scale 0-12).
Statistical evaluation of differences between the experimental groups was determined by using two-way Anova followed by a Bonferroni post test. *** p<0.001, IMQ-Vehicle compared with treatment.

The structures appear in SMILES notation.

Take `Cc1ccc(C(NC(=O)Cc2ccc3c(c2)CC(=O)N3)c2ccc(C)o2)c(N2CCCCC2)c1` (stereo not shown) [Cpd. 24, N-{[4-methyl-2-(piperidin-1-yl)phenyl](5-methylfuran-2-yl)methyl}-2-(2-oxo-2,3-dihydro-1H-indol-5-yl)acetamide]: the IC50 on human RORγt is 0.01 to 0.1 µM; in data set [1], < 0.1 µM. Further, the adverse effect result in data set [2] (after test compound administration, 30 mg/kg orally daily day 0 to day 7) was “no adverse effect was observed”. Moreover, the “cumulative score (erythema plus scaling plus thickening)” value in data set [2] (orally 30 mpk, day 5, compared to control treatment) is on record as “significant decrease”.

What is called IC50 is the point on the concentration scale where inhibition reaches its midpoint.
